The conditions of series [1]: CD-1 mice; cited from earlier work.
Series [2] concerns PARP.
In series [3] the test system is human colon cancer and lung cancer xenograft models. To be noted: human colon cancer (ref 12) and lung cancer xenograft models (ref 1); cited from earlier work.
Series [4] has as its system PARP. Particulars: cited from earlier work.
In series [5] the test system is PARP. Particulars: phase 0 study, National Cancer Institute; single oral dose of 25 or 50 mg; cited from earlier work.
Where [6] appears, read: individual animals, single 5 mg/kg dose, 5 mg/kg.
Where [7] appears, read: individual animals, single 5 mg/kg dose, model parameter, 5 mg/kg.
[8] abbreviates: mean of three animals, single 5 mg/kg dose, model parameter.

Where “and” joins values, the source holds several entries; their conditions need not be identical. Equal entries are not always repeated. Where two headings read alike, the source gives them in different places.

As to `C[C@]1(c2nc3c(C(N)=O)cccc3[nH]2)CCCN1` [ABT-888], in series [1], the “accumulation in intracranial tumors versus normal brain” value was “preferentially accumulate in intracranial tumors versus normal brain”. For the same compound, the “% PARP inhibition” value with PARP [2] (individual animals, PBMCs, 2 h post versus pre-treatment, single oral 5 mg/kg) was 52% and 71% and 78%. The “reduction of PARP activity in PBMCs compared with pre-treatment levels” value in the series with PARP [2] (mean ± SD of three animals, 2 h after a single dose) worked out at 67 ± 13%. In the series with PARP [2] (range across animals, 2 h after single oral dose 5 mg/kg), the “PARP inhibition in NHP PBMCs” value is on record as 52–78%. Also, the potentiation of radiation entry in series [3] is recorded as “potentiates radiation”. Further, the “concentrations required for ex vivo PARP inhibition in PBMCs” value in the series on PARP [4] is 0.1 to 0.3 µM. Under setting [6], the “V1/F model-estimated apparent volume of distribution” value was 40.0 L/kg and 24.2 L/kg; the “t1/2P model-estimated plasma half-life” value is 3.9 h and 4.3 h. Under setting [7], the “K12 rate constant for transfer from plasma to CSF” value was 7e-06 h⁻¹ and 4.7e-06 h⁻¹ and 1.65e-05 h⁻¹; the “K21 rate constant for transfer from CSF to plasma” value is 0.805 h⁻¹ and 0.420 h⁻¹ and 0.913 h⁻¹; the “Ka absorption rate constant” value is 12.5 h⁻¹ and 53.5 h⁻¹ and 44.2 h⁻¹; the “Ke plasma elimination rate constant” value was 0.18 h⁻¹ and 0.16 h⁻¹. Moreover, the “τ time-delay for absorption of oral drug” value under setting [7] is 0.76 h and 0.78 h and 2.75 h. Also, the Vd/F (male, rhesus monkey, plasma, po, 5 mg/kg, V1/F model-estimated apparent volume of distribution, individual animals, single 5 mg/kg dose) is 41.5 L/kg. Moreover, under setting [8], the “K12 rate constant for transfer from plasma to CSF” value is 9.4e-06 h⁻¹, the “K21 rate constant for transfer from CSF to plasma” value was 0.71 h⁻¹, the “Ka absorption rate constant” value amounted to 36.7 h⁻¹ and the “τ time-delay for absorption of oral drug” value is listed as 1.43 h. The “time delay for absorption” value (range across animals, oral 5 mg/kg) is 46 to 165 min. Further, the “PARP inhibition in PBMCs and biopsied tumors” value with PARP [5] is reported as more than 90%.

Values taken from article PMC2953793 (Cancer chemotherapy and pharmacology, 2009).
